Measurements from patent US20030228583A1, “Biomarkers of liver response” (priority 2001, published 2003).

Legend:
Male Sprague-Dawley rats = assay: Phenobarbital rat toxicity study (clinical observations, body weight, clinical laboratory measurements, organ weights, histopathology)
[1] = tested on: Liver Response-Associated Features (LRFs) in serum/plasma (blood); assay: Proteome analysis (2D electrophoresis, Reference Protocol) of depleted serum/plasma of drug-treated vs control animals: relative abundance of LRFs
From the text: Samples from animals treated with various drugs at various timepoints and various dose levels can be collected, prepared, and analysed as described herein. […] Using the following procedure, proteins in liver tissue and serum/plasma from 5 control animals and 5 animals having liver response induced through drug treatment were separated by isoelectric focusing followed by SDS-PAGE and analyzed. Samples were taken and analyzed at three different time points designated “early”, “full manifestation” and “late”. Parts 6.1.1 to 6.1.9 (inclusive) of the procedure set forth below are hereby designated as the “Reference Protocol”.
Approximately 200 μl venous blood was collected at the time of necropsy in serum seperation tubes and serum obtained by centrifugation for 3 minutes at 11,000 rpm using a Biofuge A centrifuge. 100 μl of the resulting serum was added to 15 μl protease inhibitor, vortexed and frozen at −80° C.
A protein assay (Pierce (Rockford, Ill.) BCA Cat #23225) was performed on each serum/plasma sample as received. Prior to protein separation, each sample was processed for selective depletion of certain proteins, in order to enhance and simplify protein separation and facilitate analysis by removing proteins that may interfere with or limit analysis of proteins of interest. See International Patent Application No. PCT/GB99/01742, filed Jun. 1, 1999, which is incorporated by reference in its entirety, with particular reference to pages 3 and 6.
This was done by circulating the following solutions sequentially through the columns: (1) Dulbecco's Phosphate Buffered Saline (Gibco BRL Cat. No. 14190-094); (2) concentrated antibody solution; (3) 200 mM sodium carbonate buffer, pH 8.35; (4) cross-linking solution (200 mM sodium carbonate buffer, pH 8.35, 20 mM dimethylpimelimidate); and (5) 500 mM ethanolamine, 500 mM NaCl. A third (un-derivatised) protein G Hi-Trap column was then attached to the lower end of the tandem column assembly.
The chromatographic procedure was automated using an Akta Fast Protein Liquid Chromatography (FPLC) System such that a series of up to seven runs could be performed sequentially. […] Fractions (typically 3 ml per tube) were collected of unbound material (“Flowthrough fractions”) that eluted through the column during column loading and washing stages and of bound proteins (“Bound/Eluted fractions”) that were eluted by step elution with Immunopure Gentle Ag/Ab Elution Buffer (Pierce Cat. No. 21013). The eluate containing unbound material was collected in fractions which were pooled, desalted/concentrated by centrifugal ultrafiltration and stored to await further analysis by 2D PAGE.
A volume of depleted serum/plasma containing approximately 300 μg of total protein was aliquoted and an equal volume of 10% (w/v) SDS (Fluka 71729), 2.3% (w/v) dithiothreitol (BDH 443852A) was added. The sample was heated at 95° C. for 5 mins, and then allowed to cool to 20° C . 125 μl of the following buffer was then added to the sample:
This mixture was vortexed, and centrifuged at 13000 rpm for 5 mins at 15° C., and the supernatant was analyzed by isoelectric focusing.
Isoelectric focusing (IEF), was performed using the Immobiline® DryStrip Kit (Pharmacia BioTech), following the procedure described in the manufacturer's instructions, see Instructions for Immobilineg DryStrip Kit, Pharmacia, #18-1038-63, Edition AB (incorporated herein by reference in its entirety). Immobilized pH Gradient (IPG) strips (18 cm, pH 3-10 non-linear strips; Pharmacia Cat. #17-1235-01) were rehydrated overnight at 20° C. in a solution of 8M urea, 2% (w/v) CHAPS, 10 mM DTT, 2% (v/v) Resolytes 3.5-10, as described in the Immobiline DryStrip Users Manual. For IEF, 50 μl of supernatant (prepared as above) was loaded onto a strip, with the cup-loading units being placed at the basic end of the strip.

[2] = final necropsy (twelve days post dose)

What does the source list for CCC1(c2ccccc2)C(=O)NC(=O)NC1=O [phenobarbital]?
Clinical observations (Male Sprague-Dawley rats; 100 mg/kg/day oral gavage, rat): generally well tolerated with no adverse clinical signs observed in any of the control or treated groups other than decreased activity; Survival (Male Sprague-Dawley rats; 100 mg/kg/day oral gavage, rat): survived; Gross pathology observations (Male Sprague-Dawley rats; 100 mg/kg/day oral, rat): no treatment-related gross findings; Creatinine decreased (Male Sprague-Dawley rats; day 2, 100 mg/kg/day oral, rat): 1.7 ×; Serum/plasma urea nitrogen decreased (Male Sprague-Dawley rats; day 2, 100 mg/kg/day oral, rat): 1.8 ×; Total protein decreased (Male Sprague-Dawley rats; day 2, 100 mg/kg/day oral, rat): 1.1 ×; Cholesterol increased (Male Sprague-Dawley rats; day 5, 100 mg/kg/day oral, rat): 1.5 ×; Glucose decreased (Male Sprague-Dawley rats; day 5, 100 mg/kg/day oral, rat): 1.6 ×; Serum/plasma urea nitrogen increased (Male Sprague-Dawley rats; day 12, 100 mg/kg/day oral, rat): 1.2 ×; % reticulocytes (Male Sprague-Dawley rats; days 5 and 12): small but significant decreases; Group mean body weights vs concurrent controls (Male Sprague-Dawley rats; either interim necropsy): No significant treatment-related changes; Mean body weight vs concurrent controls (Male Sprague-Dawley rats; final necropsy): significant decrease; Absolute liver weights (Male Sprague-Dawley rats; [2]): about the same as control; Relative liver weight increased (Male Sprague-Dawley rats; [2]): about 1.06 × control mean; Liver weights increased (Male Sprague-Dawley rats; five days post dose): about 1.5 × control mean; Increased numbers of hepatocytes with apoptotic bodies or mitotic figures, incidence (Male Sprague-Dawley rats; same time point as centrilobular hypertrophy): 3 of 5; Liver weights increased (Male Sprague-Dawley rats; two days post dose): about 1.1 × control mean; Centrilobular hypertrophy, incidence (Male Sprague-Dawley rats; two days post dose (so in the source)): 5 of 5; Group means of the various hematology parameters (except % reticulocytes) (Male Sprague-Dawley rats; vs vehicle control animals): not altered; Fold Change LRF-235 ([1]; Early, P 0.0075): 8.26 fold; Fold Change LRF-223 ([1]; Early, P 0.0117): 1.34 fold; Fold Change LRF-158 ([1]; Early, P 0.0119): −1.33 fold; Fold Change LRF-217 ([1]; Early, P 0.0122): 2.16 fold; Fold Change LRF-182 ([1]; Early, P 0.0178): −2.81 fold; Fold Change LRF-179 ([1]; Early, P 0.0212): −1.37 fold; Fold Change LRF-224 ([1]; Early, P 0.0216): 1.30 fold; Fold Change LRF-369 ([1]; Late, P 0.0097): 2.53 fold; Fold Change LRF-371 ([1]; Late, P 0.0109): 3.02 fold; Fold Change LRF-257 ([1]; Middle, P 0.0122): −1.42 fold; Fold Change LRF-259 ([1]; Middle, P 0.0212): −1.34 fold; Fold Change LRF-294 ([1]; Middle, P 0.0216): 1.57 fold
